Details: Liquid

CC(C)CCO [3-methylbutan-1-ol]
Recirculating Still
Details	vapor or sublimation pressure [kPa]
357.5 K	15
367.2 K	23.5
374.4 K	32
380.1 K	40.5
384.8 K	49
389.1 K	57.5
392.8 K	66
402 K	91.5
407 K	108.5
409.3 K	117
411.4 K	125.5
413.5 K	134
415.4 K	142.5
417.3 K	151
419.2 K	159.5
420.9 K	168
422.4 K	176.5

CC(C)CO [2-methyl-1-propanol]
Recirculating still
Details	vapor or sublimation pressure [kPa]
336.9 K	15
351.2 K	30
357.7 K	40
362.9 K	50
367.4 K	60
371.3 K	70
374.7 K	80
377.8 K	90
380.7 K	100
383.3 K	110
385.8 K	120
388 K	130
390.2 K	140
392.2 K	150

Source: the NIST ThermoML archive (doi:10.1016/j.jct.2009.04.009)
